Reference: PubChem BioAssay (NCI)
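Five concentrations, 48 hours, 96-well plates. The concentration for full growth arrest is given as TGI.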

Experiments:
Assay in all cases: growth of human tumour cells (NCI), 48 h
786-0 renal = tested on: 786-0 renal
A498 renal = tested on: A498 renal
A549 NSCLC = tested on: A549 NSCLC
ACHN renal = tested on: ACHN renal
BT-549 breast = tested on: BT-549 breast
CAKI-1 renal = tested on: CAKI-1 renal
CCRF-CEM leukemia = tested on: CCRF-CEM leukemia
COLO 205 colon = tested on: COLO 205 colon
DU-145 prostate = tested on: DU-145 prostate
EKVX NSCLC = tested on: EKVX NSCLC
HCT-116 colon = tested on: HCT-116 colon
HCT-15 colon = tested on: HCT-15 colon
HL-60(TB) leukemia = tested on: HL-60(TB) leukemia
HOP-62 NSCLC = tested on: HOP-62 NSCLC
HOP-92 NSCLC = tested on: HOP-92 NSCLC
HS 578T breast = tested on: HS 578T breast
HT29 colon = tested on: HT29 colon
IGROV1 ovarian = tested on: IGROV1 ovarian
K-562 leukemia = tested on: K-562 leukemia
KM12 colon = tested on: KM12 colon
LOX IMVI melanoma = tested on: LOX IMVI melanoma
M14 melanoma = tested on: M14 melanoma
MALME-3M melanoma = tested on: MALME-3M melanoma
MCF7 breast = tested on: MCF7 breast
MDA-MB-231 breast = tested on: MDA-MB-231 breast
MDA-MB-435 = tested on: MDA-MB-435
MDA-N = tested on: MDA-N
MOLT-4 leukemia = tested on: MOLT-4 leukemia
NCI-H226 lung = tested on: NCI-H226 lung
NCI-H23 lung = tested on: NCI-H23 lung
NCI-H460 lung = tested on: NCI-H460 lung
NCI-H522 lung = tested on: NCI-H522 lung
NCI/ADR-RES ovarian = tested on: NCI/ADR-RES ovarian
OVCAR-3 ovarian = tested on: OVCAR-3 ovarian
OVCAR-4 ovarian = tested on: OVCAR-4 ovarian
OVCAR-5 ovarian = tested on: OVCAR-5 ovarian
OVCAR-8 ovarian = tested on: OVCAR-8 ovarian
PC-3 prostate = tested on: PC-3 prostate
RXF 393 renal = tested on: RXF 393 renal
SF-268 CNS = tested on: SF-268 CNS
SF-295 CNS = tested on: SF-295 CNS
SF-539 CNS = tested on: SF-539 CNS
SK-MEL-2 melanoma = tested on: SK-MEL-2 melanoma
SK-MEL-28 melanoma = tested on: SK-MEL-28 melanoma
SK-MEL-5 melanoma = tested on: SK-MEL-5 melanoma
SK-OV-3 ovarian = tested on: SK-OV-3 ovarian
SN12C renal = tested on: SN12C renal
SNB-19 CNS = tested on: SNB-19 CNS
SNB-75 CNS = tested on: SNB-75 CNS
SR leukemia = tested on: SR leukemia
SW-620 colon = tested on: SW-620 colon
T-47D breast = tested on: T-47D breast
TK-10 renal = tested on: TK-10 renal
U251 CNS = tested on: U251 CNS
UACC-257 melanoma = tested on: UACC-257 melanoma
UACC-62 melanoma = tested on: UACC-62 melanoma
UO-31 renal = tested on: UO-31 renal
HCC-2998 colon = tested on: HCC-2998 colon
RPMI-8226 leukemia = tested on: RPMI-8226 leukemia

Measured: TGI

COc1cc(S(=O)(=O)Nc2nc(-c3ccc(N)cc3)cs2)ccc1Cl
> 100 µM: 786-0 renal | A498 renal | A549 NSCLC | ACHN renal | BT-549 breast | CAKI-1 renal | CCRF-CEM leukemia | COLO 205 colon | DU-145 prostate | EKVX NSCLC | HCT-116 colon | HCT-15 colon | HL-60(TB) leukemia | HOP-62 NSCLC | HOP-92 NSCLC | HS 578T breast | HT29 colon | IGROV1 ovarian | K-562 leukemia | KM12 colon | LOX IMVI melanoma | M14 melanoma | MALME-3M melanoma | MCF7 breast | MDA-MB-231 breast | MDA-MB-435 | MDA-N | MOLT-4 leukemia | NCI-H226 lung | NCI-H23 lung | NCI-H460 lung | NCI-H522 lung | NCI/ADR-RES ovarian | OVCAR-3 ovarian | OVCAR-4 ovarian | OVCAR-5 ovarian | OVCAR-8 ovarian | PC-3 prostate | RXF 393 renal | SF-268 CNS | SF-295 CNS | SF-539 CNS | SK-MEL-2 melanoma | SK-MEL-28 melanoma | SK-MEL-5 melanoma | SK-OV-3 ovarian | SN12C renal | SNB-19 CNS | SNB-75 CNS | SR leukemia | SW-620 colon | T-47D breast | TK-10 renal | U251 CNS | UACC-257 melanoma | UACC-62 melanoma | UO-31 renal

CCN(CC)CCOC(=O)CCN1CC2CCC(CC2)C1
> 100 µM: 786-0 renal | A498 renal | A549 NSCLC | ACHN renal | BT-549 breast | CAKI-1 renal | CCRF-CEM leukemia | COLO 205 colon | DU-145 prostate | EKVX NSCLC | HCC-2998 colon | HCT-116 colon | HCT-15 colon | HL-60(TB) leukemia | HOP-92 NSCLC | HS 578T breast | HT29 colon | IGROV1 ovarian | K-562 leukemia | KM12 colon | LOX IMVI melanoma | M14 melanoma | MALME-3M melanoma | MCF7 breast | MDA-MB-231 breast | MDA-MB-435 | MDA-N | MOLT-4 leukemia | NCI-H226 lung | NCI-H23 lung | NCI-H460 lung | NCI-H522 lung | NCI/ADR-RES ovarian | OVCAR-3 ovarian | OVCAR-4 ovarian | OVCAR-5 ovarian | OVCAR-8 ovarian | PC-3 prostate | RPMI-8226 leukemia | RXF 393 renal | SF-295 CNS | SF-539 CNS | SK-MEL-2 melanoma | SK-MEL-28 melanoma | SK-MEL-5 melanoma | SK-OV-3 ovarian | SNB-19 CNS | SNB-75 CNS | SR leukemia | SW-620 colon | T-47D breast | TK-10 renal | U251 CNS | UACC-257 melanoma | UACC-62 melanoma | UO-31 renal
